IC50 data for four compounds are collected here from ChEMBL document CHEMBL4825775, “Substituted 2,3-Benzodiazepines Derivatives as Bromodomain BRD4 Inhibitors” (ACS Med Chem Lett, 2021).

The target in experiment [1] is T1, Bromodomain-containing protein 4 (Homo sapiens, UniProt O60885). The experiment can be described thus: Inhibition of recombinant human His-tagged BRD4 BD1 using biotin-labelled histone H4 acetylated peptide as substrate by TR-FRET assay.
Experiment [2] concerns the target T1, Bromodomain-containing protein 4. In words: Inhibition of recombinant human His-tagged BRD4 BD2 using biotin-labelled histone H4 acetylated peptide as substrate by TR-FRET assay.

Turning to `CNC(=O)N1N=C(c2ccc(N3CCN(C(=O)CCOCCOCCOCCNc4ccc5c(c4)C(=O)N(C4CCC(=O)NC4=O)C5=O)CC3)cc2)c2cc(OC)c(OC)cc2C[C@@H]1C` (stereo partly drawn), the figures for the IC50 in experiment [1] and in experiment [2] were 19.3 nM and 166 nM, respectively.
The like results for `CNC(=O)N1N=C(c2ccc(N3CCN(C(=O)COCCOCCOCCOCC(=O)Nc4cccc5c4C(=O)N(C4CCC(=O)NC4=O)C5=O)CC3)cc2)c2cc(OC)c(OC)cc2C[C@@H]1C` (stereo partly drawn) were, in that order, 18.6 nM and 78.4 nM.
As for `CNC(=O)N1N=C(c2ccc(C(=O)NCCCCNC(=O)COc3cccc4c3C(=O)N(C3CCC(=O)NC3=O)C4=O)cc2)c2cc(OC)c(OC)cc2C[C@@H]1C` (stereo partly drawn), the half-inhibitory concentration (IC50) in experiment [1] is 24.9 nM; in experiment [2] it was 136 nM.
The like results for `CNC(=O)N1N=C(c2ccc(N3CCN(C(=O)COCCOCCOCC(=O)Nc4cccc5c4C(=O)N(C4CCC(=O)NC4=O)C5=O)CC3)cc2)c2cc(OC)c(OC)cc2C[C@@H]1C` (stereo partly drawn) were, in that order, 14.9 nM and 150 nM.
